Data taken from patent publication US12491187B2, “Use of MCT1 inhibitors to enhance insulin sensitivity” (H. LEE MOFFIT CANCER CENTER AND RESEARCH INSTITUTE, INC., priority 2022, dated 2025).

Legend:
Type in all cases: cell-based, murine
3T3-L1 cells = experiment: Oil Red O staining of lipid during preadipocyte differentiation; conditions: differentiated in the presence of 1 μM AZD3965, vs control 3T3-L1
Description: Differentiation Protocol: The 3T3-L1 differentiation protocol was adapted from Green and Meuth (1974) (Zebisch, K, et al. Anal. Biochem. 2012 425:88-90; Green, H, et al. Cell 1974 3:127-133). Cells were seeded at approximately 80% confluency and allowed to reach confluency prior to induction of differentiation. 1-2 days post confluency, growth media was changed to ‘day 0’ media consisting of media supplemented with 0.5 mM 1-methyl-3-isobutyl xanthine (IBMX), 1 µM dexamethasone, and 10 μg/mL insulin. On ‘day 3’ media was changed to growth media with 10 μg/mL insulin only, and on ‘day 6’ media was replaced with normal growth media. After day 6, the complete media was refreshed every 2 days. Using Oil Red O staining, RT-qPCR and immunoblotting, it was determined that 3T3-L1 cells were fully differentiated into lipid-laden adipocytes by ‘day 8’ of the protocol, as reported by others (Petersen, C, et al. Sci. Rep. 2017 7:13101; Mangum, L H, et al. Toxicol. Lett. 2015 238:65-71). All differentiation experiments were performed on cells between passage 4 and 6 to ensure differentiation efficiency was consistent. Oil Red O Staining: Cells were then fixed with 4% PFA for 10 minutes. […] 10× images of cells were taken from randomized fields of view with the Cytation 5 Cell Imaging Multi-Mode reader (BioTek Instruments). Lipid content was also quantified on the Cytation 5.

preadipocytes (3T3-L1) = experiment: Proliferation (CyQUANT NF) of preadipocytes; conditions: 72 hr
[1] = test system: differentiated 3T3-L1 adipocytes; experiment: Intracellular lactate (Lactate-Glo); conditions: 1 μM
Description: Intracellular Lactate: Intracellular lactate was measured using the Lactate-Glo™ Assay Kit (Promega®) according to the manufacturer's instructions. 3T3-L1 cells were seeded and differentiated in white clear bottom 96-well plates (Corning®). After differentiation, cells were treated with compound or vehicle as indicated. Following 15 min, 30 min, 1 hr, 4 hr, 8 hr or 24 hr incubation with […] AZD6965, media was removed, and cells were lysed. Lysates were then subjected to a proprietary enzymatic reaction coupling lactate oxidation and NADH production with a bioluminescent detection system supplied by the Lactate-Glo™ Assay kit, and luminescence was read on a spectrophotometer (FlexStation 3; Molecular Devices). The data generated were normalized by dividing the relative luminescence units (RLU) collected for each experimental condition by the average RLU of vehicle control.

[2] = test system: differentiated 3T3-L1 cells; experiment: RT-qPCR of mRNA levels in differentiated adipocytes
Description: RT-qPCR: RNA was harvested from preadipocytes using the RNeasy® Plus Mini Kit as per manufacturer's recommendations (Qiagen). For differentiated adipocytes, RNA was collected and isolated using TRIzol (Thermo Fisher Scientific) according to the manufacturer's instructions. Quantification of RNA was performed using the Nanodrop 1000 Spectrophotometer. RNA (2 μg) was reverse transcribed using Superscript III First Strand synthesis kit (Invitrogen). RT-qPCR detection with SYBR green was performed with the resulting cDNA and a 50/50 forward primer: reverse primer ratio using the QuantStudio™ 5 (Applied Biosystems™). Oligonucleotide primer sequences used in this study can be found in the table below.

[3] = test system: differentiated 3T3-L1 adipocytes; experiment: Intracellular pyruvate (Amplite fluorimetric assay); conditions: 1 μM
Description: Intracellular Pyruvate: Intracellular pyruvate was measured using the Amplite™ Fluorimetric Pyruvate Assay Kit (AAT Bioquest) according to the manufacturer's instructions. 3T3-L1 cells were seeded and differentiated in white clear bottom 96-well plates (Corning®). After differentiation, cells were treated with compound or vehicle as indicated. Following 15 min, 30 min, 1 hr, 4 hr, 8 hr or 24 hr incubation with 1 μM AZD6965, media was removed, and cells were lysed with ReadiUse™ mammalian cell lysis buffer (AAT Bioquest). Lysates were then subjected to an enzyme-coupled reaction with the Quest Fluor™ Pyruvate Sensor resulting in an […] detected at 575 nm which is proportional to the quantity of pyruvate within the sample. Absorbance was read on a spectrophotometer (FlexStation 3; Molecular Devices).

[4] = differentiated adipocytes, 1 μM, 24 hr
[5] = mature adipocytes, 24 hr treatment

Cc1[nH]nc(C(F)(F)F)c1Cc1sc2c(c1C(=O)N1C[C@](C)(O)CO1)c(=O)n(C)c(=O)n2C(C)C [AZD3965, 5-[[(4S)-4-hydroxy-4-methyl-2-isoxazolidinyl]carbonyl]-3-methyl-1-(1-methylethyl)-6-[[5-methyl-3-(trifluoromethyl)-1H-pyrazol-4-yl]methyl]-thieno[2,3-d]pyrimidine-2,4 (1H, 3H)-dione]
lipid content (Oil Red O staining) over the course of differentiation (3T3-L1 cells): significantly less lipid | proliferation (preadipocytes (3T3-L1)): no effect on proliferation | intracellular lactate levels relative to basal ([1]; after 24 hr): approximately 2 fold | intracellular lactate ([1]; within 15 minutes, maintained through first 4 hr): significant increase | CDK1 mRNA level [2, 4]: significant upregulation | Cyclin B mRNA level [2, 4]: significant upregulation | PLK1 mRNA level [2, 4]: significant upregulation | TOP2A mRNA level [2, 4]: significant upregulation | FABP4 mRNA levels [2, 5]: significantly increased | HSL mRNA levels [2, 5]: significantly decreased | PPARγ transcript levels [2, 5]: significant decrease | intracellular pyruvate levels ([3]; after 24 hr): not significantly altered | intracellular pyruvate ([3]; first 8 hr of treatment): significant increase
